Structures can show the parent of a compound that is named as a salt.

The text below walks through data of patent US5801263A, “Process for preparing tertiary phosphines containing phosphinate or phosphonate groups, and novel tertiary phosphines containing phosphinate groups” (Hoechst Aktiengesellschaft, priority 1996, dated 1998).

The conditions of series [1]: in water, at 20° C.; cited from earlier work.
A further series in a line: Solubility in water. The format is physicochemical. The conditions noted are these: sodium salt, no temperature printed for this value. As to the method: 100 ml of a 3.7% strength by weight sodium hydrogen carbonate solution (44.1 mmol NaHCO3) are added to 15.0 g (44.1 mmol) of (4-diphenylphosphinophenyl)methylphosphinic acid and the mixture stirred at room temperature until CO2 formation has ended. The aqueous solution is completely evaporated and dried under reduced pressure. 15.6 g (97% of theory) of sodium (4-diphenylphosphinophenyl)methylphosphinate are obtained. Solubility in water: 590 g/l

`O=S(=O)(O)c1cccc(P(c2ccccc2)c2ccccc2)c1` [Na[TPPMS], sodium salt of triphenylphosphinemonosulfonate]: the “water solubility (literature comparison)” value in series [1] is 80 mg/mL. Regarding `CP(=O)(O)c1ccc(P(c2ccccc2)c2ccccc2)cc1` [Sodium (4-diphenylphosphinophenyl)methylphosphinate], in “Solubility in water”, the Solubility in water was found to be 590 mg/mL. In the case of “disodium salt of triphenylphosphinemonophosphonate [Na2 TPPMP]”, the “water solubility (literature comparison)” value in series [1] is 380 mg/mL.
